Values joined by “and” are separate entries in the source; they are usually repeats but may differ in a detail not shown here. Equal values may be shown once. Read-outs that look alike come from different tables or passages of the source.
Experiments:
[1] = biological target: Hsp90β (Homo sapiens, UniProt P08238); test: Fluorescence polarization assay (FITC-GDA tracer displacement), Hsp90β; format: binding; details: for % Polarization to DMSO control: triplicate wells; for selectivity for Hsp90β: Hsp90β versus Hsp90α, from Kd values
Sequence of Hsp90β (P08238 whole entry): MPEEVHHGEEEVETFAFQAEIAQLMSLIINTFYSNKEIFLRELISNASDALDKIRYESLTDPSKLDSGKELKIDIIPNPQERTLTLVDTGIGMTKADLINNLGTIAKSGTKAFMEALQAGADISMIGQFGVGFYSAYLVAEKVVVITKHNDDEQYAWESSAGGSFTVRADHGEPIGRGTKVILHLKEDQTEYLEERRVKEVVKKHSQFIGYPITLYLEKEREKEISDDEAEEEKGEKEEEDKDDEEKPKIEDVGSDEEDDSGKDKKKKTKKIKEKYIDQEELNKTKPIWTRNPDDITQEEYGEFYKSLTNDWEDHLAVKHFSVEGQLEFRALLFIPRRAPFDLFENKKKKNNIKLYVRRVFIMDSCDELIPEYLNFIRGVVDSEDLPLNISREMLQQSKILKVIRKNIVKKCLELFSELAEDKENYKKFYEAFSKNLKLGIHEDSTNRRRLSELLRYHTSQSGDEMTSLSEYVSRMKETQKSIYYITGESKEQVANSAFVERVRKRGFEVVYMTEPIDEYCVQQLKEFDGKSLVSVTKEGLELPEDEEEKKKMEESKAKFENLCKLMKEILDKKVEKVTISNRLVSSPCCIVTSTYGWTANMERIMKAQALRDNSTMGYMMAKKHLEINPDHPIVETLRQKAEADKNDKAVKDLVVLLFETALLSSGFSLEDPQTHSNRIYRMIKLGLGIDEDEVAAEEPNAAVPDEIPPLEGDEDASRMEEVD
Description: (§1) Compounds were tested in triplicate wells (1% DMSO final concentration). For each plate, wells containing buffer only (background), tracer in buffer only (low polarization control), and protein and tracer in buffer with 1% DMSO (high polarization control) were included. Plates were incubated at 4 °C with rocking for 24 h. […] Polarization values were correlated to % tracer bound and compound concentrations. The concentration at which the tracer was 50% displaced by the inhibitor was determined using Graphpad Prism.

[2] = biological target: Hsp90α (Homo sapiens, UniProt P07900); test: Fluorescence polarization assay (FITC-GDA tracer displacement), Hsp90α; format: binding; details: for % Polarization to DMSO control: triplicate wells
Description: as §1

[3] = fluorescence polarization, apparent Kd, read-out: Kd Hsp90β
[4] = fluorescence polarization, apparent Kd, read-out: Kd Hsp90α

CC(C)c1cc(C(=O)N2Cc3ccccc3C2)c(O)c(CO)c1O [Compound 5]
Kd ([1]; Kd Hsp90β, fluorescence polarization, apparent Kd): 4270 nM
% Polarization to DMSO control ([1]; Suppl Table 5, 5 1 μM): 73.89% and 76.47% and 73.55%
% Polarization to DMSO control ([1]; Suppl Table 5, 5 5 μM): 48.11% and 44.50% and 46.91%
% Polarization to DMSO control ([1]; Suppl Table 5, 5 10 μM): 27.82% and 30.40% and 31.26%
% Polarization to DMSO control ([1]; Suppl Table 5, 5 25 μM): 13.21% and 21.12% and 17.17%
% Polarization to DMSO control ([1]; Suppl Table 5, 5 50 μM): 21.98% and 21.29%

COCc1cc(O)c(C(=O)N2Cc3ccccc3C2)cc1C(C)C [Compound 3]
Kd [1]: > 25000 nM
binding to Hsp90β ([1]; at 10 μM): did not bind
Kd [2]: > 25000 nM
binding to Hsp90α ([2]; at 10 μM): did not bind

CC(C)c1cc(C(=O)N2Cc3ccc(F)cc3C2)c(O)c2cnoc12 [Compound 6b]
selectivity over Hsp90α and Grp94 ([1]; Hsp90β versus Hsp90α and Grp94): ~ 50 fold
% Polarization to DMSO control ([1]; Suppl Table 13, 6b 0.125 μM): 80.92% and 79.55% and 79.72%
% Polarization to DMSO control ([1]; Suppl Table 13, 6b 0.5 μM): 44.66% and 45.17%
% Polarization to DMSO control ([1]; Suppl Table 13, 6b 1 μM): 27.05% and 23.28% and 31.32%
Kd ([1]; fluorescence polarization, apparent Kd, value in nM, read-out: Kd Hsp90β): 180 nM
Kd [1, 3]: 440 nM
% Polarization to DMSO control ([2]; Suppl Table 12, 6b 0.125 μM): 101. 64% and 98.69% and 98.03%
% Polarization to DMSO control ([2]; Suppl Table 12, 6b 0.5 μM): 97.54% and 93.76% and 98.36%
% Polarization to DMSO control ([2]; Suppl Table 12, 6b 1 μM): 98.19% and 97.05% and 96.39%
% Polarization to DMSO control ([2]; Suppl Table 12, 6b 3 μM): 87.85% and 82.27% and 73.25%
% Polarization to DMSO control ([2]; Suppl Table 12, 6b 10 μM): 66.68% and 53.88% and 63.89%
% Polarization to DMSO control ([2]; Suppl Table 12, 6b 25 μM): 41.57% and 41.90% and 42.23%
% Polarization to DMSO control ([2]; Suppl Table 12, 6b 75 μM): 20.07% and 24.50% and 20.73%
Kd [2, 4]: 18200 nM

CC(C)c1cc(C(=O)N2Cc3ccccc3C2)c(O)cc1CC#N [Compound 2]
Kd [1]: 970 nM
selectivity for Hsp90β [1]: ~ 2.5 fold
% Polarization to DMSO control ([1]; Suppl Table 8, 2 0.1 μM): 90.36% and 90.17% and 91.52%
% Polarization to DMSO control ([1]; Suppl Table 8, 2 0.5 μM): 65.62% and 68.90% and 70.45%
% Polarization to DMSO control ([1]; Suppl Table 8, 2 1 μM): 47.25% and 50.54% and 49.96%
% Polarization to DMSO control ([1]; Suppl Table 8, 2 5 μM): 12.84% and 16.90% and 23.47%
% Polarization to DMSO control ([1]; Suppl Table 8, 2 10 μM): 4.14% and 8.59% and 10.52%
Kd [2]: 2280 ± 120 nM
% Polarization to DMSO control ([2]; Suppl Table 9, 2 0.1 μM): 95.62% and 98.23% and 93.53%
% Polarization to DMSO control ([2]; Suppl Table 9, 2 0.5 μM): 78.89% and 78.37% and 75.58%
% Polarization to DMSO control ([2]; Suppl Table 9, 2 1 μM): 66.18% and 68.79% and 67.22%
% Polarization to DMSO control ([2]; Suppl Table 9, 2 5 μM): 22.97% and 29.94%

CC(C)c1ccc(O)c(C(=O)N2Cc3ccccc3C2)c1 [Compound 1]
selectivity for Hsp90β [1]: ~ 2 fold
% Polarization to DMSO control ([1]; Suppl Table 11, 1 0.5 μM): 68.22% and 73.53% and 68.55%
% Polarization to DMSO control ([1]; Suppl Table 11, 1 1 μM): 60.93% and 62.75% and 64.41%
% Polarization to DMSO control ([1]; Suppl Table 11, 1 5 μM): 23.80% and 23.30% and 19.99%
% Polarization to DMSO control ([1]; Suppl Table 11, 1 10 μM): 15.34% and 18.00% and 10.37%
% Polarization to DMSO control ([1]; Suppl Table 11, 1 25 μM): 12.53% and 4.40% and 5.73%
% Polarization to DMSO control ([1]; Suppl Table 11, 1 50 μM): 5.73% and 5.90% and 4.40%
% Polarization to DMSO control ([1]; Suppl Table 11, 1 100 μM): 8.22% and 4.90% and 9.38%
Kd [1, 3]: 1630 nM
% Polarization to DMSO control ([2]; Suppl Table 10, 1 0.5 μM): 84.59% and 83.37% and 82.16%
% Polarization to DMSO control ([2]; Suppl Table 10, 1 1 μM): 70.63% and 71.84% and 71.69%
% Polarization to DMSO control ([2]; Suppl Table 10, 1 5 μM): 31.78% and 33.90% and 37.85%
% Polarization to DMSO control ([2]; Suppl Table 10, 1 10 μM): 22.83% and 17.67% and 25.25%
% Polarization to DMSO control ([2]; Suppl Table 10, 1 25 μM): 16.45% and 15.39% and 18.58%
% Polarization to DMSO control ([2]; Suppl Table 10, 1 50 μM): 11.45% and 12.05% and 8.56%
% Polarization to DMSO control ([2]; Suppl Table 10, 1 100 μM): 9.47% and 8.26%
Kd [2, 4]: 3210 nM

CC(C)c1cc(C(=O)N2Cc3ccccc3C2)c(O)cc1C=O [Compound 4]
Kd ([2]; Kd Hsp90α): 1550 nM and 1220 nM

— article PMC5789826, “Structure-guided design of an Hsp90β N-terminal isoform-selective inhibitor” (Nature Communications, 2018)
